The subject of test [1] is TAC mice. In words: TAC mice, 6-week minipump treatment: echocardiography. It counts as in vivo. The note with it: in words.
Test [2] concerns TAC mice. Briefly: TAC mice, 6-week minipump treatment: cardiac fibrosis, Masson's trichrome. It counts as in vivo. As to conditions: 6 weeks, TMZ 6, NA 2.4, CV-8814 7.5, CV-8972 10 mg/kg/day, TAC control 10.7±1.
Test [3] deals with TAC mice. Briefly: TAC mice, 6-week minipump treatment: left ventricular pressure by Mikro-tip catheter. It counts as in vivo. As to conditions: 6 weeks, CV-8972 10 mg/kg/day, TAC control −5697±417.
Test [4] concerns TAC mice. In words: TAC mice, 6-week minipump treatment: heart weight and heart weight/body weight. In kind it is in vivo. The note with it: in words, 6 weeks, NA 2.4 mg/kg/day.
The test system of test [5] is isolated hearts after ischemia-reperfusion. Briefly: Ischemia-reperfusion (IR), isolated hearts (Langendorff): cardiac function (left ventricular pressure). Also noted: species or system mice. The note with it: in words; TMZ 20 μM; TNF 2 μM each; TNS 20 μM each.
Protocol: FIG. 38 is a schematic of the ischemia-reperfusion (IR) method used to analyze the effects of selected compositions on coronary flow, cardiac function, and infarct size. […] At 20 minutes, ischemia was induced, and coronary flow was analyzed. At 50 minutes, reperfusion was initiated to restore blood flow. At 170 minutes, coronary flow and cardiac function was analyzed, and then the hearts were preserved, sectioned, and infarct size was measured by triphenyltetrazolium chloride (TTC) staining.
Where [6] appears, read: to the end of the study (6 weeks).

`COc1ccc(CN2CCN(CCO)CC2)c(OC)c1OC` [CV-8814, 2-(4-(2,3,4-trimethoxybenzyl)piperazin-1-yl)ethan-1-ol]: the EF result was “significantly increased” in test [1] (3-weeks after TAC) and “protective effect was sustained” in test [1] (setting [6]). In addition, the “cardiac fibrosis (fibrotic area to whole heart tissue area)” value in test [2] is reported as 6.6±0.6%.

As for `COc1ccc(CN2CCN(CCOC(=O)c3cccnc3)CC2)c(OC)c1OC` [CV-8972, 2-(4-(2,3,4-trimethoxybenzyl)piperazin-1-yl)ethyl nicotinate], the EF result is reported as “significantly increased” in test [1] (3-weeks after TAC) and “protective effect was sustained” in test [1] (setting [6]). In addition, the “−dp/dtm” value in test [3] is −4126±339 mm Hg/sec.

With `O=C(O)c1cccnc1` [NA, nicotinic acid, reference compound], the “effect on cardiac remodeling” value in test [4] is given as “no significant effect on cardiac remodeling”. In addition, in test [1] (TAC mice, NA 2.4 mg/kg/day), the IVSd entry was “decreased IVSd” and the LV mass result is reported as “no effect on LV mass”.

Regarding `COc1ccc(CN2CCNCC2)c(OC)c1OC` [TMZ, trimetazidine], the “cardiac function (LVDP) after IR” value in test [5] is “prevented a decline in cardiac function”.
